# Results as given in patent publication US20240382564A1, “Methods and Compositions for Treating Muscular Dystrophy and Memory Impairment” (Allysta Pharmaceuticals, Inc., priority 2023, published 2024).
# Where no end group is shown, it is not given here. [ ]: non-standard residue; d: D form. Nva = CCC[C@H](N)C(=O)O
# Legend:
# D2.mdx mice [1] = assay: Mitochondrial calcium retention capacity; format: in vivo, mouse; conditions: between groups
# Procedure: (§1) D2.mdx mice were treated with ALY688 at two different dosages; high dose (HD; 15 mg/kg body weight/day) or low dose (LD; 3 mg/kg body weight/day) dissolved in saline. A separate group of mice were treated with saline alone (VEH, vehicle). Treatment was provided via subscapular subcutaneous injections from 7 days of age to 28-30 days. […] At 28-30 days of age, mice were anaesthetized with isoflurane vaporized in medical air (21% oxygen) at a 2 L/min flow rate. Due to tissue limitations in limb muscle, certain measures were performed separately in tibialis anterior and quadriceps across several phases of breeding. […]
# This assay was measured spectrofluorometrically (QuantaMaster 80, HORIBA Scientific) in a cuvette with 300 μL assay buffer containing 1 μM Calcium Green-5N (Invitrogen), 2 μM thapsigargin, 5 μM blebbistatin, and 40 μM EGTA while maintained at 37° C. with continuous stirring. 5 mM glutamate, 2 mM malate, 5 mM ADP and 20 mM creatine were added to the assay buffer and minimum fluorescence was recorded. 4 nmol pulses of CaCl2 were added until the mitochondrial permeability transition pore (mPTP) opening was observed as an increase in fluorescence corresponding to net mitochondrial calcium release, at which point saturating pulses of CaCl2 were used to establish maximum fluorescence. […]
# D2.mdx mice [2] = assay: In-vitro diaphragm force; format: in vivo, mouse
# Procedure: as §1
# A silk suture was attached to the central tendons and the ribs and secured in a bath with oxygenated Ringers solution containing (in mM) 121 NaCl, 5 KCl, 1.8 CaCl2, 0.5 MgCl2, 0.4 NaHPO4, 24 NaHCO3, 5.5 glucose and 0.1 EDTA; pH 7.3 (95% O2/5% CO2) maintained at 25° C. with ribs secured to the force transducer with an s-hook and central tendon to the lever arm. […] After the force-frequency protocol was assessed, a 5 minute rest period was provided before a fatiguing protocol was performed (70 Hz for 350 ms every 2 seconds for 5 minutes). Recovery from fatigue was assessed at 5-, 10- and 15-minutes post fatigue at the frequency that elicited maximum force in the force-frequency protocol. […]
substance,measurement,setting,value
[dN]IP[Nva]LY[dS]FA[dS]-NH2 [ALY688],mitochondrial calcium retention capacity,D2.mdx mice [1],no differences between groups
same,"muscle force production, change","D2.mdx mice [2]; diaphragm strips, both doses",−2.3% to −43.0
same,"recovery from fatigue, change","D2.mdx mice [2]; diaphragm, high dose, printed range also covers quadriceps low dose",−5.3% to −50.9
